19 molecules from patent publication US7713994B2 (Wyeth LLC, priority 2005, dated 2010) can be followed below.

What all share (type): biochemical
The target in experiment [1] is T1, cyclin E/CDK2 enzyme (Homo sapiens, UniProt P24941).
T1 construct: made in house; host or cells: Sf9 insect cells, recombinant baculovirus
Briefly: CDK2 ELISA kinase assay (phospho-Rb ser 795 detection). How it is done: (§1) • 1. High-binding ELISA microtiter plates (Costar) were coated with 40 μl of the kinase substrate (GST fusion of C-terminal fragment of the retinoblastoma susceptibility gene product) diluted to 10 μg/ml in tris-buffered saline (TBS), overnight at 4° C. • 2. Non-specific binding sites were blocked for 1 hour at 4° C. with Superblock in TBS (Pierce), and the plates rinsed with water. • 3. For the screen, 1.5 μl of test compound (200 μg/ml stock in 20% DMSO/20 mM HEPES, pH 7.5) was added to each well. Final dose of the test compound in the assay was 10 ug/ml. […] The kinase reaction (30 μl) was dispensed into each well. Reactions contained 200 μM ATP, 0.5 mg/ml bovine serum albumin (BSA; Sigma), and 0.5 μl partially purified cyclin D1/cdk 4 enzyme*. The enzyme complex is expressed in insect cells (Sf9) infected with recombinant baculovirus and partially purified using ammonium sulfate fractionation. Reaction volumes were adjusted to 30 μl with kinase assay buffer (50 mM HEPES, pH 7.5, 10 mM MgCl2, 5% glycerol, 10 mM 2-mercaptoethanol). • *: For CDK2 assay, 1.0 μl cyclin E/CDK2 enzyme (diluted 1:1000 in kinase assay buffer) was used. The enzyme is isolated from insect cells (Sf9) infected with recombinant baculovirus and partially purified using ammonium sulfate fractionation. For CDK1 assay, 0.08 μl cyclin B/CDK1 enzyme [New England BioLabs; the enzyme is isolated from insect cells (Sf9) infected with recombinant baculovirus carrying human cdc 2 and human cyclin B] was used.
(§2) […] • 5. Plates were incubated at 30° C. for 1 hour. • 6. The reaction mixture was removed by aspiration and replaced with 250 μl TBS containing 0.1% Tween-20 and 5% nonfat dry milk (blocking buffer). The plates were incubated at 4° C. for 1 hour. • 7. The blocking buffer was removed and replaced with 50 μl of the primary antibody [anti-phospho-Rb ser 795 (New England BioLabs) diluted 1:1000 in blocking buffer]. Incubation was at 4° C. for 16-20 hours. • 8. The wells were rinsed 3 times with 250 μl of TBS containing 0.1% Tween-20 followed by the addition of 50 μl of secondary antibody [anti-rabbit IgG conjugated to horseradish peroxidase (Amersham Life Science) diluted 1:1000 in blocking buffer]. • 9. After a 1 hour incubation at room temperature, the wells were rinsed 3 times with 250 μl of TBS/0.1% Tween 20. • 10. TMB (3,3′,5,5′-tetramethylbenzidine dihydrochloride) substrate solution (100 μl; Pierce) was added to each well and the color development reaction allowed to proceed 5-10 minutes at room temperature with shaking. The reaction was stopped by the addition of 2N sulfuric acid (100 μl) and the absorbance values read at 450 nm in a microplate reader (Molecular Devices). Analysis of Results: • 1. The percentage of the absorbance value in wells containing the test compound relative to control wells (no test agent) was determined. • 2. IC50 values of selected compounds were determined from inhibition curves, after subtracting background values (no substrate).
In general terms: ELISA stands for enzyme-linked immunosorbent assay.

For experiment [2], the target named is T2, cyclin D1/cdk 4 enzyme (Homo sapiens, UniProt P11802).
T2 construct: made in house; host or cells: Sf9 insect cells, recombinant baculovirus
T2 sequence (P11802 whole entry, species assumed): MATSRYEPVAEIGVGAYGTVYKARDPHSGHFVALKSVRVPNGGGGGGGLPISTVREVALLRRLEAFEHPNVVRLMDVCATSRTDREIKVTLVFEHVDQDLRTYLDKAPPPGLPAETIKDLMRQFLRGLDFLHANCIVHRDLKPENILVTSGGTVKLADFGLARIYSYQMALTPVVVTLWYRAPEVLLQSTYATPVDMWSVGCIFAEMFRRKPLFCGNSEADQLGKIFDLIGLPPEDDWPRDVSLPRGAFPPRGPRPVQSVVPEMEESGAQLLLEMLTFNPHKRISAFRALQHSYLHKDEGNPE
T2 sequence (P24385 whole entry partner, species assumed): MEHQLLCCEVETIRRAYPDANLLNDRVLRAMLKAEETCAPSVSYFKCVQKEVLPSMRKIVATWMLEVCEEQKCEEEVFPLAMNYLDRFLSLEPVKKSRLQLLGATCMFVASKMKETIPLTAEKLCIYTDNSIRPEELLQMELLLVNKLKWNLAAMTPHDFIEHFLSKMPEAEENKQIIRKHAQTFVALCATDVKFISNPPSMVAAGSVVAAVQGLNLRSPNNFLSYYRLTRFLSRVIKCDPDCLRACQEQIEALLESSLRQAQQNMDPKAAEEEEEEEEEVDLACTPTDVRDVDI
As to the kind of experiment: CDK4 ELISA kinase assay (phospho-Rb ser 795 detection). In outline:
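Partially purified Sf9-expressed cyclin D1/CDK4, cyclin E/CDK2 or cyclin B/CDK1 phosphorylated plate-bound GST-Rb C-terminal fragment with 200 μM ATP at 30° C for 1 h.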

For experiment [3], the target named is T3, cyclin B/CDK1 enzyme (Homo sapiens, UniProt P06493).
T3 construct: purchased New England BioLabs; host or cells: Sf9 insect cells, recombinant baculovirus
T3 sequence (P06493 whole entry): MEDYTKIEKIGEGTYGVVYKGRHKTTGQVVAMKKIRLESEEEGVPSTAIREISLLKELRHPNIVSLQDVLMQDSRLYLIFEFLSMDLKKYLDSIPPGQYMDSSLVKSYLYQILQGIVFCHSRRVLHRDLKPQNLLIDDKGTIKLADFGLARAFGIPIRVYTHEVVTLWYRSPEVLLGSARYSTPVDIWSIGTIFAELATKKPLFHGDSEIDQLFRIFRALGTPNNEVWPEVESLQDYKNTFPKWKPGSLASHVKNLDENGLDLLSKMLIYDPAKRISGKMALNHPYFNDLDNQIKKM
T3 sequence (P14635 whole entry partner): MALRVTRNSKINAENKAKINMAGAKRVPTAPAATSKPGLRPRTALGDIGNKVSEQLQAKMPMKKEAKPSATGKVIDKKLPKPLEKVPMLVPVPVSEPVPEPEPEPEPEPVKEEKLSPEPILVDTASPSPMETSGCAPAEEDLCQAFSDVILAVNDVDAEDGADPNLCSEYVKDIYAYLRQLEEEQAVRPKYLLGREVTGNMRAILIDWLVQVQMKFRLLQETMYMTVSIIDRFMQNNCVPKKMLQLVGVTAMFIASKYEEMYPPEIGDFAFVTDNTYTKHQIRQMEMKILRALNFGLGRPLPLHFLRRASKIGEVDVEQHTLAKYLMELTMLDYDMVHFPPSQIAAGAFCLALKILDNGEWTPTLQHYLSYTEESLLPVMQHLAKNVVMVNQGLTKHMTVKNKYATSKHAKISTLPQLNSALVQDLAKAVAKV
Briefly: CDK1 ELISA kinase assay (phospho-Rb ser 795 detection). How it is done: as §1, §2

[4] abbreviates: In Vitro Enzyme Assay, cyclin E/CDK2, read-out: CDK2 IC50.
Where [5] appears, read: In Vitro Enzyme Assay, cyclin D1/cdk 4, read-out: CDK4 IC50.
Where [6] appears, read: In Vitro Enzyme Assay, cyclin B/CDK1, read-out: CDK1 IC50.
The mark [7] stands for this setting: In Vitro Enzyme Assays, read-out: CDK2 IC50.
Where [8] appears, read: In Vitro Enzyme Assays, 200 μM ATP, read-out: CDK4 IC50.
Setting [9] is: In Vitro Enzyme Assays, read-out: CDK1 IC50.

Like-named read-outs stand apart in the source and are kept apart here. A value given as a limit tells only on which side of the number the result lay.

The term IC50 denotes the concentration that inhibits the measured activity by half. As for `CCN(CC)CCn1ccc(-c2ccc3c(c2)C(=CNc2ccc(N4CCN(C)CC4)cc2)C(=O)NC3=O)c1` [Example 854, 6-[1-(2-Diethylamino-ethyl)-1H-pyrrol-3-yl]-4-{[4-(4-methyl-piperazin-1-yl)-phenylamino]-methylene}-4H-isoquinoline-1,3-dione], the figures for the IC50 in experiment [1] (setting [4]), in experiment [2] (setting [5]) and in experiment [3] (setting [6]) were more than 50 µM, 610 nM and more than 50 µM, respectively.

In the case of `O=C1NC(=O)c2ccc(Br)cc2C1=CNc1ccc(-c2cccnc2)cc1` [Example 349, 6-Bromo-4-[(4-pyridin-3-yl-phenylamino)-methylene]-4H-isoquinoline-1,3-dione], the IC50 in experiment [1] (setting [7]) is 36.3 µM; in experiment [2] (setting [8]) it was 37100 nM; in experiment [3] (setting [9]), more than 50 µM.

Consider `CN1CCN(c2ccc(NC=C3C(=O)NC(=O)c4ccc(-c5ccc6c(ccn6CC(N)=O)c5)cc43)cc2)CC1` [Example 851, 2-[5-(4-{[4-(4-Methyl-piperazin-1-yl)-phenylamino]-methylene}-1,3-dioxo-1,2,3,4-tetrahydro-isoquinolin-6-yl)-indol-1-yl]-acetamide], for which the figures for the IC50 in experiment [1] (setting [4]), in experiment [2] (setting [5]) and in experiment [3] (setting [6]) were 10.3 µM, 790 nM and 2.7 µM, respectively.

For `CCCOc1ccc(CN/C=C2\C(=O)NC(=O)c3ccc(Br)cc32)cc1C(=O)O` [Example 352, 5-({[(Z)-(6-Bromo-1,3-dioxo-2,3-dihydroisoquinolin-4(1H)-ylidene)methyl]amino}methyl)-2-propoxybenzoic acid], the IC50 stood at 12 µM in experiment [1] (setting [7]), 1900 nM in experiment [2] (setting [8]) and 22.6 µM in experiment [3] (setting [9]).

Turning to `O=C1NC(=O)c2ccccc2C1=CNc1ccc(O)c(C(=O)O)c1` [Example 563, 5-[(1,3-Dioxo-2,3-dihydro-1H-isoquinolin-4-ylidenemethyl)-amino]-2-hydroxy-benzoic acid], the IC50 in experiment [1] (setting [4]) worked out at 15.1 µM; in experiment [2] (setting [5]), 8200 nM; in experiment [3] (setting [6]), 18.5 µM.

For `CC(=O)c1ccc(-c2ccc3c(c2)C(=CNCc2ccc(O)c(O)c2)C(=O)NC3=O)cc1` [Example 775, 6-(4-Acetyl-phenyl)-4-[(3,4-dihydroxy-benzylamino)-methylene]-4H-isoquinoline-1,3-dione], the figures for the IC50 in experiment [1] (setting [4]), in experiment [2] (setting [5]) and in experiment [3] (setting [6]) were 14.1 µM, 200 nM and more than 50 µM, respectively.

With `O=C1NC(=O)c2ccccc2C1=CNC(Cc1ccc(O)c(O)c1)C(=O)O` (stereo not drawn) [Example 567, 3-(3,4-Dihydroxy-phenyl)-2-[(1,3-dioxo-2,3-dihydro-1H-isoquinolin-4-ylidenemethyl)-amino]-propionic acid], the IC50 stood at 16.2 µM in experiment [1] (setting [4]), 11900 nM in experiment [2] (setting [5]) and 17.7 µM in experiment [3] (setting [6]).

Turning to `NS(=O)(=O)c1ccc(CNC=C2C(=O)NC(=O)c3ccc(C=Cn4ccnc4)cc32)cc1` [Example 658, 4-({[6-(2-Imidazol-1-yl-vinyl)-1,3-dioxo-2,3-dihydro-1H-isoquinolin-4-ylidenemethyl]-amino}-methyl)-benzenesulfonamide], the IC50 is 23.1 µM in experiment [1] (setting [4]), 190 nM in experiment [2] (setting [5]) and more than 50 µM in experiment [3] (setting [6]).

In the case of “(4Z)-6-Bromo-4-{[(3-hydroxy-4-methoxybenzyl)amino)methylene}isoquinoline-1,3(2H,4H-dione [Example 50]”, the results for the IC50 in experiment [1] (setting [7]), in experiment [2] (setting [8]) and in experiment [3] (setting [9]) were more than 50 µM, 30 nM and more than 50 µM, respectively.

Turning to `O=C1NC(=O)c2ccc(C=Cc3ccncc3)cc2C1=CNCc1ccc(O)c(O)c1` [Example 663, 4-[(3,4-Dihydroxy-benzylamino)-methylene]-6-(2-pyridin-4-yl-vinyl)-4H-isoquinoline-1,3-dione], the IC50 in experiment [1] (setting [4]) was 6.3 µM; in experiment [2] (setting [5]), 10 nM; in experiment [3] (setting [6]) it was more than 50 µM.

As to `O=C(O)C=Cc1cccc(-c2ccc3c(c2)C(=CNCc2ccc(O)c(O)c2)C(=O)NC3=O)c1` [Example 789, 3-(3-{4-[(3,4-Dihydroxy-benzylamino)-methylene]-1,3-dioxo-1,2,3,4-tetrahydro-isoquinolin-6-yl}-phenyl)-acrylic acid], the IC50 in experiment [1] (setting [4]) was 27.7 µM; in experiment [2] (setting [5]) it was 400 nM; in experiment [3] (setting [6]) it was more than 50 µM.

In the case of `N#CCc1ccc(NC=C2C(=O)NC(=O)c3ccccc32)cc1` [Example 555, {4-[(1,3-Dioxo-2,3-dihydro-1H-isoquinolin-4-ylidenemethyl)-amino]-phenyl}-acetonitrile], the IC50 worked out at 21.3 µM in experiment [1] (setting [4]), 14700 nM in experiment [2] (setting [5]) and 45 µM in experiment [3] (setting [6]).

For the molecule `COc1ccc(CN/C=C2\C(=O)NC(=O)c3ccc(Cl)cc32)cc1O` [Example 67, (4Z)-6-Chloro-4-{[(3-hydroxy-4-methoxybenzyl)amino]methylene}isoquinoline-1,3(2H,4H)-dione], the IC50 was more than 50 µM in experiment [1] (setting [7]), 230 nM in experiment [2] (setting [8]) and more than 50 µM in experiment [3] (setting [9]).

On to `CN1CCN(c2ccc(NC=C3C(=O)NC(=O)c4ccc(-c5ccn(CC(N)=O)c5)cc43)cc2)CC1` [Example 853, 2-[3-(4-{[4-(4-Methyl-piperazin-1-yl)-phenylamino]-methylene}-1,3-dioxo-1,2,3,4-tetrahydro-isoquinolin-6-yl)-pyrrol-1-yl]-acetamide], for which the IC50 in experiment [1] (setting [4]) was more than 50 µM; in experiment [2] (setting [5]), 120 nM; in experiment [3] (setting [6]) it was more than 50 µM.

With `NS(=O)(=O)c1ccc(CNC=C2C(=O)NC(=O)c3ccc(C=Cc4ccncc4)cc32)cc1` [Example 653, 4-({[1,3-Dioxo-6-(2-pyridin-4-yl-vinyl)-2,3-dihydro-1H-isoquinolin-4-ylidenemethyl]-amino}-methyl)-benzenesulfonamide], the results for the half-inhibitory concentration (IC50) in experiment [1] (setting [4]), in experiment [2] (setting [5]) and in experiment [3] (setting [6]) were 45.5 µM, 210 nM and more than 50 µM, respectively.

On to `Nc1cc(CN/C=C2\C(=O)NC(=O)c3ccc(Br)cc32)cc(O)c1O` [Example 204, (4Z)-4-{[(3-Amino-4,5-dihydroxybenzyl)amino]methylene}-6-bromoisoquinoline-1,3(2H,4H)-dione], for which the IC50 in experiment [1] (setting [7]) is 7 µM; in experiment [2] (setting [8]), 220 nM; in experiment [3] (setting [9]), more than 50 µM.

As to `O=C(O)CCc1ccc(-c2ccc3c(c2)C(=CNCc2ccc(O)c(O)c2)C(=O)NC3=O)cc1` [Example 819, 3-(4-{4-[(3,4-Dihydroxy-benzylamino)-methylene]-1,3-dioxo-1,2,3,4-tetrahydro-isoquinolin-6-yl}-phenyl)-propionic acid], the IC50 in experiment [1] (setting [4]) was determined as 27.1 µM; in experiment [2] (setting [5]), 810 nM; in experiment [3] (setting [6]), 27.1 µM.

For the molecule `O=C1NC(=O)c2ccccc2C1=CNCC(O)c1ccc(O)c(O)c1` (stereo not drawn) [Example 564, 4-{[2-(3,4-Dihydroxy-phenyl)-2-hydroxy-ethylamino]-methylene}-4H-isoquinoline-1,3-dione], the 50% inhibitory concentration (IC50) in experiment [1] (setting [4]) was determined as 13.8 µM; in experiment [2] (setting [5]), 12800 nM; in experiment [3] (setting [6]), 16.9 µM.

For the molecule `N=C(N)c1ccc(NC=C2C(=O)NC(=O)c3ccccc32)cc1` [Example 547, 4-[(1,3-Dioxo-2,3-dihydro-1H-isoquinolin-4-ylidenemethyl)-amino]-benzamidine], the IC50 in experiment [1] (setting [4]) is 6.6 µM; in experiment [2] (setting [5]), 13200 nM; in experiment [3] (setting [6]) it was more than 50 µM.
